Test results: US20190030036A1, “PHOSPHODIESTERASE INHIBITOR TREATMENT” (Cyrano Therapeutics, Inc., priority 2013, published 2019)
Marks after values point to notes of the source that are not given here.

System: patients with hyposmia
Experiment: Smell function (DT, RT, ME, H) by forced-choice, three-stimuli, stepwise-staircase technique with four odors; open trial of oral theophylline
Format: in vivo, human
Excerpt: Patients initially reported their sensory dysfunction as either loss of taste (e.g., flavor) and/or smell function. This subjective response was documented by objective psychophysical measurements of olfactory function administered to each patient by use of a forced-choice, three-stimuli, stepwise-staircase technique in a fixed, controlled design (1, 53). Efficacy of this technique and results of testing were previously documented in a double-blind clinical trial (53). Four odors were used; they were pyridine (dead-fish odor), nitrobenzene (bitter-almond odor), thiophene (petroleum-like odor) and amyl acetate (banana-oil odor). Detection thresholds (DT), recognition thresholds (RT) and magnitude estimation (ME) values for each odor were determined as previously described (1, 53). Thresholds were converted into bottle units (BU) as previously described (53) and results reported as M±SEM of correct responses for each odor in each treatment group; ME was reported in % and results calculated to obtain M±SEM for each treatment group for all correct responses using data for the four highest odor concentrations presented (from 10^−2M—an absolute odor concentration).
In addition, each patient graded the hedonic (H) value of each odor presented for these same odor concentrations (from 10^−2M—an absolute odor concentration using a −100−0−+100 scale). […] Results were obtained by calculating the arithmetical sum of each correct recognition response for each odor with respect to its pleasantness, unpleasantness or neutrality. Arithmetic M±SEM were obtained for each treatment group for each odor presented.
After determination of hyposmia, patients were treated in an open label, fixed design, controlled open trial. Patients were given an oral extended release theophylline in divided daily doses taken in the middle of breakfast and lunch. All patients were initially given 200 mg of theophylline; changes in this dose were made based upon subjective responses to therapy. If at a subsequent return visit, patients reported ≥5% subjective improvement in overall smell function, they continued on this same dose of theophylline and were reevaluated after four to six months of continued treatment. Results from any subsequent return from these improved patients were not included in any subsequent data report. All subsequent comparisons between treated and untreated patients were made only between those patients continuing in the study compared to their own measurements obtained in the untreated state. If patients reported <5% subjective improvement, their theophylline dose was increased by 200 mg daily and they were scheduled for retesting at the study site after two to four months at this new dosage. For patients that reported <5% improvement, this sequence continued until patients reached 800 mg of theophylline, at which time the study was considered completed.
Patients returned for reevaluation after two to four months of treatment. Measurements of blood serum theophylline were measured by a fluorescence polarization assay (Abbott, Chicago, Ill.). At this time, subjective changes in smell function were measured independently (compared to patient's memory of previous normal smell function monitored by use of the patients' daily measurements) using the scale from −100−0-+100 previously described. After independently recording their subjective responses, smell function was measured for all four odors with DT, RT, ME and H determined without recourse to prior measurements.
Since data for all measurements from each patient group (local or distant) on each dose level were combined mean and SEM for each measurement (DT, RT, ME, H) of smell function for each treatment group were calculated on this basis. Differences in measurements between before treatment and each treatment level were calculated and significance of differences estimated using Student t tests (values p<0.05 considered significant). […]

[1] = nitrobenzene, oral theophylline 200 mg daily, all patients (199)
[2] = nitrobenzene, oral theophylline 200 mg, Type I hyposmia (57)
[3] = nitrobenzene, oral theophylline 200 mg, Type II hyposmia (138)
[4] = nitrobenzene, oral theophylline 200 mg, Type III hyposmia (4)
[5] = nitrobenzene, oral theophylline 400 mg
[6] = nitrobenzene, oral theophylline 400 mg daily, all patients (120)
[7] = nitrobenzene, oral theophylline 400 mg, Type I hyposmia (33)
[8] = nitrobenzene, oral theophylline 400 mg, Type II hyposmia (85)
[9] = nitrobenzene, oral theophylline 400 mg, Type III hyposmia (2)
[10] = nitrobenzene, oral theophylline 600 mg daily, all patients (160)
[11] = nitrobenzene, oral theophylline 600 mg, Type I hyposmia (51)
[12] = nitrobenzene, oral theophylline 600 mg, Type II hyposmia (105)
[13] = nitrobenzene, oral theophylline 600 mg, Type III hyposmia (4)
[14] = nitrobenzene, oral theophylline 800 mg daily, all patients (28)
[15] = nitrobenzene, oral theophylline 800 mg, Type I hyposmia (12)
[16] = nitrobenzene, oral theophylline 800 mg, Type II hyposmia (16)

Cn1c(=O)c2[nH]cnc2n(C)c1=O [theophylline]
DT, detection threshold [1]: 7.8 ± 0.2^d BU
H, hedonic estimation [1]: 6 ± 2^a %
ME, magnitude estimation [1]: 17 ± 2 ^ %
RT, recognition threshold [1]: 9.5 ± 0.2^a BU
DT, detection threshold [2]: 10.3 ± 0.3^a BU
H, hedonic value [2]: 4 ± 2^a %
ME, magnitude estimation [2]: 5 ± 2^a %
RT, recognition threshold [2]: 11.2 ± 0.2^d BU
DT, detection threshold [3]: 6.9 ± 0.3^a BU
H, hedonic value [3]: 7 ± 2^ %
ME, magnitude estimation [3]: 22 ± 2^ %
RT, recognition threshold [3]: 8.8 ± 0.3^ BU
DT, detection threshold [4]: 3.8 ± 0.7 BU
H, hedonic value [4]: 13 ± 12%
ME, magnitude estimation [4]: 33 ± 8%
RT, recognition threshold [4]: 5.0 ± 0.6 BU
ME increases [5]: 11%
change of H values (became more pleasant) [5]: 4%
DT, detection threshold [6]: 7.2 ± 0.3^c BU
H, hedonic estimation [6]: 8 ± 3^a %
ME, magnitude estimation [6]: 23 ± 2^a %
RT, recognition threshold [6]: 8.9 ± 0.3^b BU
DT, detection threshold [7]: 9.8 ± 0.5^a BU
H, hedonic value [7]: 3 ± 3^a %
ME, magnitude estimation [7]: 8 ± 3^a %
RT, recognition threshold [7]: 10.9 ± 0.4^e BU
DT, detection threshold [8]: 6.3 ± 0.4^a BU
H, hedonic value [8]: 11 ± 3^ %
ME, magnitude estimation [8]: 27 ± 3^a %
RT, recognition threshold [8]: 8.2 ± 0.4^a BU
DT, detection threshold [9]: 2.5 BU
H, hedonic value [9]: −62%
ME, magnitude estimation [9]: 79%
RT, recognition threshold [9]: 4.0 BU
DT, detection threshold [10]: 7.8 ± 0.3^a BU
H, hedonic estimation [10]: 8 ± 2^d %
ME, magnitude estimation [10]: 18 ± 2^d %
RT, recognition threshold [10]: 9.1 ± 0.2^c BU
DT, detection threshold [11]: 9.9 ± 0.4^c BU
H, hedonic value [11]: 2 ± 2^ %
ME, magnitude estimation [11]: 6 ± 2^a %
RT, recognition threshold [11]: 10.8 ± 0.3^ BU
DT, detection threshold [12]: 6.8 ± 0.3^a BU
H, hedonic value [12]: 11 ± 2^ %
ME, magnitude estimation [12]: 24 ± 2^ %
RT, recognition threshold [12]: 8.4 ± 0.3^ BU
DT, detection threshold [13]: 3.8 ± 0.9 BU
H, hedonic value [13]: 12 ± 16%
ME, magnitude estimation [13]: 33 ± 13%
RT, recognition threshold [13]: 4.5 ± 1.3 BU
DT, detection threshold [14]: 7.0 ± 0.8^d BU
H, hedonic estimation [14]: 13 ± 7 ^ %
ME, magnitude estimation [14]: 25 ± 6 ^ %
RT, recognition threshold [14]: 7.8 ± 0.8^d BU
DT, detection threshold [15]: 10.1 ± 0.8^ BU
H, hedonic value [15]: 2 ± 2^a %
ME, magnitude estimation [15]: 4 ± 3^a %
RT, recognition threshold [15]: 11.3 ± 0.7^ BU
DT, detection threshold [16]: 4.6 ± 0.9^a BU
H, hedonic value [16]: 22 ± 11^ %
ME, magnitude estimation [16]: 42 ± 8^b %
RT, recognition threshold [16]: 5.1 ± 0.9^a BU
total mean increase of ME for all odors (oral theophylline 200 mg): 5.1%
increase of H values for amyl acetate (oral theophylline 200 mg daily, not statistically significant): 50%
total mean increase of ME for all odors (oral theophylline 400 mg): 10.4%
decrease of H values for thiophene (oral theophylline 400 mg daily): 40%
increase of H values for nitrobenzene (oral theophylline 400 mg daily, not statistically significant): 50%
